Read-outs that look alike come from different tables or passages of the source. Marks after values point to notes of the source that are not given here.
Experiments:
[1] = tested on: human red blood cells (hRBC); assay: Hemolysis of red blood cells; format: cell-based
In short: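 hRBCs (2% suspension) exposed to compounds at 0.2–200 μM (ten-point dose-response) for 1 h at 37 °C; after centrifugation, haemoglobin release read as supernatant OD at 405 nm. DMSO set as 0% and Triton X as 100% haemolysis; HC50 from dose-response curves, three independent experiments.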

[2] = tested on: MRSA-1 (clinical isolate); assay: MIC broth microdilution, MRSA-1; format: cell-based, Staphylococcus aureus
Procedure: (§1) The minimum inhibitory concentration (MIC) for each tested compound was determined by the broth microdilution method as recommended by the Clinical and Laboratory Standards Institute (CLSI). In a 96-well plate, eleven two-fold serial dilutions of each compound were made in a final volume of 100 μL Luria Broth. Each well was inoculated with ˜10^5 bacterial cells at the initial time of incubation, prepared from a fresh log phase culture (OD600 of 0.5 to 1.0 depending on bacterial strain). […] (MIC values were supported by spectrophotometric readings at OD600). DMSO served as our vehicle and negative control in each microdilution MIC assay. DMSO was serially diluted with a top concentration of 1% v/v.
(§2) Each well was inoculated with ˜10^5 bacterial cells at the initial time of incubation, prepared from a fresh log phase culture (OD600 of 0.5 to 1.0 depending on bacterial strain). […] The concentration range tested for each compound during this study was 0.10 to 100 μM. DMSO served as our vehicle and negative control in each microdilution MIC assay. DMSO was serially diluted with a top concentration of 1% v/v. All MIC values were obtained from a minimum of three independent experiments.

[3] = tested on: methicillin-resistant Staphylococcus aureus MRSA-2 (clinical isolate); assay: MIC broth microdilution, MRSA-2; format: cell-based; details: for MIC: read-out: MIC MRSA-2
In short: (§3)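 Following CLSI guidance, MICs come from broth microdilution in Luria Broth over 0.10 to 100 μM, with about 10^5 cells per well incubated 16 to 18 hours at 37° C.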

[4] = tested on: vancomycin-resistant Enterococcus faecium (VRE strain ATCC 700221); assay: MIC broth microdilution, VRE 700221; format: cell-based
In short: as §3

[5] = tested on: SA-156 (clinical isolate); assay: MIC broth microdilution, SA-156; format: cell-based, Staphylococcus aureus
Procedure: as §1, §2

[6] = tested on: SA-138 (clinical isolate); assay: MIC broth microdilution, SA-138; format: cell-based, Staphylococcus aureus
Procedure: as §1, §2

MRSA BAA-1707 = assay: MIC broth microdilution, MRSA BAA-1707; format: cell-based, Staphylococcus aureus; details: for MIC MRSA 1707: Table 4
In short: (§4)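 Following CLSI, each compound is tested across 0.10–100 μM by two-fold dilution in Luria Broth against ~10^5 freshly grown log-phase cells. MIC is supported by OD600 and reported from three or more independent experiments.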

[7] = tested on: methicillin-resistant Staphylococcus epidermidis (MRSE strain ATCC 35984); assay: MIC broth microdilution, MRSE 35984; format: cell-based
In short: as §3

MRSA BAA-44 = assay: MIC broth microdilution, MRSA BAA-44; format: cell-based, Staphylococcus aureus
Procedure: as §1, §2

[8] = tested on: Pseudomonas aeruginosa (PAO1); assay: MIC broth microdilution, PAO1; format: cell-based
In short: as §3

[9] = tested on: methicillin-sensitive Staphylococcus aureus ATCC 29213; assay: MIC broth microdilution, S. aureus 29213; format: cell-based
In short: as §4

[10] = tested on: SA-147 (clinical isolate); assay: MIC broth microdilution, SA-147; format: cell-based, Staphylococcus aureus
Procedure: as §1, §2

[11] = tested on: SA-129 (clinical isolate); assay: MIC broth microdilution, SA-129; format: cell-based, Staphylococcus aureus
Procedure: as §1, §2

[12] = tested on: Acinetobacter baumannii (ATCC 1794); assay: MIC broth microdilution, A. baumannii 1794; format: cell-based; details: for MIC A. baumannii 1794: in µM
In short: as §3

[13] = Table 4, concentration required to lyse 50% of red blood cells
[14] = Table 1B, read-out: MIC MRSA BAA-1707
[15] = Table 2A, read-out: MRSA BAA-1707 MIC
[16] = Table 3, read-out: MIC MRSA BAA-1707

## CCCCCCCCCCCCCCCCn1cc[n+](CCO)c1C.[Br-] [Compound 11]
[1]; Table 1A
  HC50: 6.8 µM
[1]; [13]
  RBC HC50: 6.8 µM
[2]; Table 1B
  MIC MRSA-1: 1.17^a μM
[2]; Table 3
  MIC MRSA-1: 1.17^a μM
[3]; Table 1A
  MIC MRSA-2: 1.56 µM
[3]; Table 1B
  MIC: 0.78 µM
[3]; Table 2A
  MRSA-2 MIC: 1.56 µM
[3]; Table 3
  MIC MRSA-2: 1.17^a μM
[3]; Table 4
  MIC MRSA-2: 1.17a micromolar
[4]; Table 1A
  MIC E. faecium VRE 700221: 1.56 µM
[4]; Table 2A
  VRE MIC: 1.56 µM
[4]; Table 4
  MIC VRE 700221: 1.56 µM
[5]; Table 1B
  MIC: 1.56 µM
[5]; Table 3
  MIC: 1.56 µM
[6]; Table 1B
  MIC: 1.56 µM
[6]; Table 3
  MIC: 1.56 µM
MRSA BAA-1707; [14]
  MIC: 0.39 µM
MRSA BAA-1707; [15]
  MIC: 0.39 µM
MRSA BAA-1707; [16]
  MIC: 0.39 µM
MRSA BAA-1707
  MIC MRSA 1707: 0.39 µM
[7]; Table 1A
  MIC S. epidermidis MRSE 35984: 0.59^a
[7]; Table 2A
  MRSE 35984 MIC: 0.59^a μM
[7]; Table 4
  MIC MRSE 35984: 0.59a micromolar
MRSA BAA-44; Table 1B
  MIC: 1.56 µM
MRSA BAA-44; Table 3
  MIC: 1.56 µM
[8]; Table 1A
  MIC PAO1: > 100 µM
[8]; Table 4
  MIC PAO1: >100 µM
[9]; Table 1B
  MIC S. aureus 29213: 1.17^a μM
[9]; Table 3
  MIC S. aureus 29213: 1.17^a μM
[10]; Table 1B
  MIC SA-147: 1.17^a μM
[10]; Table 3
  MIC SA-147: 1.17^a μM
[11]; Table 1B
  MIC: 1.56 µM
[11]; Table 3
  MIC: 1.56 µM
[12]; Table 1A
  MIC A. baumannii 1794: 6.25
[12]; Table 4
  MIC A. bau. 1794: 6.25 µM

## CCCCCCCCCCCCCCCC[N+](C)(C)Cc1ccccc1.[Cl-] [BAC-16, reference compound]
[1]
  RBC HC50: 21.8 µM
[3]; Table 4
  MIC MRSA-2: 1.56 µM
[4]; Table 4
  MIC VRE 700221: 3.13 µM
MRSA BAA-1707
  MIC MRSA 1707: 1.56 µM
[7]; Table 4
  MIC MRSE 35984: 1.56 µM
[8]; Table 4
  MIC PAO1: >100 µM
[12]; Table 4
  MIC A. bau. 1794: 6.25 µM

## CCCCCCCCCCCCCCCCn1cc[n+](C)c1C.[I-] [Compound 8]
[1]; Table 1A
  HC50: 13 µM
[1]; [13]
  RBC HC50: 13.0 µM
[2]; Table 1B
  MIC: 1.56 µM
[2]; Table 3
  MIC: 1.56 µM
[3]
  MRSA-2 MIC: 1.17^a μM
[4]
  MIC E. faecium VRE 700221: 2.35^a
  MIC VRE 700221: 2.35a micromolar
  VRE MIC: 2.35^a μM
[5]; Table 1B
  MIC: 1.56 µM
[5]; Table 3
  MIC: 1.56 µM
[6]; Table 1B
  MIC SA-138: 2.35^a μM
[6]; Table 3
  MIC SA-138: 2.35^a μM
MRSA BAA-1707; [14]
  MIC: 0.39 µM
MRSA BAA-1707; [15]
  MIC: 0.39 µM
MRSA BAA-1707; [16]
  MIC: 0.39 µM
MRSA BAA-1707
  MIC MRSA 1707: 0.39 µM
[7]
  MIC MRSE 35984: 1.17a micromolar
  MIC S. epidermidis MRSE 35984: 1.17^a
  MRSE 35984 MIC: 1.17^a μM
MRSA BAA-44; Table 1B
  MIC: 1.56 µM
MRSA BAA-44; Table 3
  MIC: 1.56 µM
[9]; Table 1B
  MIC: 1.56 µM
[9]; Table 3
  MIC: 1.56 µM
[10]; Table 1B
  MIC SA-147: 1.17^a μM
[10]; Table 3
  MIC SA-147: 1.17^a μM
[11]; Table 1B
  MIC: 1.56 µM
[11]; Table 3
  MIC: 1.56 µM
[12]
  MIC A. bau. 1794: 12.5 µM
  MIC A. baumannii 1794: 12.5

## CCCCCCCCCCCC[N+](C)(C)CC[N+](C)(C)CC[N+](C)(C)CCCCCCCCCCCC [QAC-10, reference compound]
[1]
  HC50: 7.92 µM
  hemolytic activity: potent hemolytic activities
[2]; Table 1B
  MIC: 3.13 µM
[2]; Table 3
  MIC MRSA-1: 4.69^a μM
[3]; Table 1
  MIC: 3.13 µM
[3]; Table 1A
  MIC MRSA-2: 3.13 µM
[3]; Table 1B
  MIC MRSA-2: 2.35^a μM
[3]; Table 2A
  MRSA-2 MIC: 2.35^a μM
[3]; Table 3
  MIC: 3.13 µM
[3]; Table 4
  MIC MRSA-2: 3.13 µM
[4]; Table 1
  MIC VRE 700221: 2.35^a μM
[4]; Table 1A
  MIC E. faecium VRE 700221: 2.35^a
[4]; Table 2
  VRE 700221 MIC: 2.35^a μM
[4]; Table 4
  MIC VRE 700221: 2.35a micromolar
[5]; Table 1B
  MIC SA-156: 2.35^a μM
[5]; Table 3
  MIC SA-156: 2.35^a μM
[6]; Table 1B
  MIC SA-138: 2.35^a μM
[6]; Table 3
  MIC SA-138: 2.35^a μM
[7]; Table 1
  MIC MRSE 35984: 2.35^a μM
[7]; Table 1A
  MIC S. epidermidis MRSE 35984: 2.35^a
[7]; Table 2
  MRSE 35984 MIC: 2.35^a μM
[7]; Table 2A
  MRSE 35984 MIC: 2.35^a μM
[7]; Table 4
  MIC MRSE 35984: 2.35a micromolar
MRSA BAA-44; Table 1B
  MIC MRSA BAA-44: 2.35^a μM
MRSA BAA-44; Table 3
  MIC MRSA BAA-44: 2.35^a μM
[8]
  MIC against P. aeruginosa: 9.38 µM
[8]; Table 1
  MIC PAO1: 9.38^a μM
[8]; Table 1A
  MIC PAO1: 9.38^a
[8]; Table 4
  MIC PAO1: 9.38a micromolar
[9]; Table 1B
  MIC S. aureus 29213: 4.69^a μM
[9]; Table 3
  MIC S. aureus 29213: 4.69^a μM
[10]; Table 1B
  MIC: 3.13 µM
[10]; Table 3
  MIC: 3.13 µM
[11]; Table 1B
  MIC SA-129: 2.35^a μM
[11]; Table 3
  MIC SA-129: 2.35^a μM
[12]
  MIC against multidrug-resistant A. baumannii: 6.25 µM
[12]; Table 1, read-out: MIC A. baumannii 1794
  MIC: 6.25 µM
[12]; Table 1A
  MIC A. baumannii 1794: 6.25
[12]; Table 4
  MIC A. bau. 1794: 6.25 µM
